# Columns and labels:
# AMPK [1] = experiment: AMPK activation in HepG2 cells in medium without serum but with 0.02% BSA; type: cell-based, human; settings: medium with 0.02% BSA vs 10% serum
# Experimental: (§1) Endogenous AMPK in crude cell lysates was first immunoprecipitated using an equal mixture of anti-α1 and –α2 antibodies (150 μg protein) by incubation at 4°C for 2 hr on a roller mixer. After extensive washing, the immunoprecipitates were assayed for AMPK activity (50 μg per assay, total assay volume 50 μl) using the AMARA peptide (200 μM) as substrate in the presence of 200 μM AMP, 5 mM MgCl2 and 200 μM [γ-^32P]ATP ([Fyffe et al., 2018]).
# [2] = design: method as in Wei et al., 2009; settings: mice, single oral dose of 63 mg/kg; ref Wei et al., 2009; cited from earlier work
# [3] = target: T1, AMPK complexes containing WT γ2 (Homo sapiens, UniProt Q9UGJ0); experiment: AMPK activity in anti-FLAG immunoprecipitates, HepG2 cells with FLAG-tagged WT AMPK-γ2; type: cell-based; settings: 1 h, 300 μM cordycepin, 10 mM phenformin or 300 μM A-769662
# T1 construct: expressed in transfected cells; host or cells: HepG2 (transient, Fugene 6)
# T1 sequence (Q9UGJ0 whole entry, one chain of several): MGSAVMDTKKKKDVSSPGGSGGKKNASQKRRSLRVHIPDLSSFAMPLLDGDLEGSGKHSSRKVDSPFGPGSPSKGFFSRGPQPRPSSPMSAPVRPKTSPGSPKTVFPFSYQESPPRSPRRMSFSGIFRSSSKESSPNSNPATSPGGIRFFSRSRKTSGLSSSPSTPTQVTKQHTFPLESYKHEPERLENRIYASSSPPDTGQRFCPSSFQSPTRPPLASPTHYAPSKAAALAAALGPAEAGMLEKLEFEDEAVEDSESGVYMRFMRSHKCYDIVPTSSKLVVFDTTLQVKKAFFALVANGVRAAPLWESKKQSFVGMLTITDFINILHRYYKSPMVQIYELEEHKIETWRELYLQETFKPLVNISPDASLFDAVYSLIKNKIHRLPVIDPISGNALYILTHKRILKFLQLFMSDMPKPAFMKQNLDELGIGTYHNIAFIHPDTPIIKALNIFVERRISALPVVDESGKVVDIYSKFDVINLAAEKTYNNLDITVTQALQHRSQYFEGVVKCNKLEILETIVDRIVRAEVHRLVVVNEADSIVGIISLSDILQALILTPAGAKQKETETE
# Experimental: (§2) HepG2 cells ([…]) were cultured in Minimum Essential Medium (MEM) supplemented with 10% (v/v) FBS, 1% (v/v) non-essential amino acids and 1% (v/v) penicillin/streptomycin. Transient transfection of DNAs encoding FLAG-tagged AMPK-γ2 or an R531G mutant of AMPK-γ2 were carried out 36-48 hr prior to experiments using Fugene 6 according to manufacturers’ instructions. U2OS cells ([…]) were cultured in Dulbecco’s Modified Eagle’s Medium (DMEM) supplemented with 10% (v/v) FBS and 1% (v/v) penicillin/streptomycin.
# (§3) HepG2 cells were transiently transfected with DNAs encoding FLAG-tagged wild type AMPK-γ2 or the R531G mutant, using Fugene 6 according to the manufacturers’ instructions. After transfection for 48 hr, cells were treated with various agents as described, and cell lysates prepared ([Hawley et al., 2018]). FLAG-tagged AMPK was then immunoprecipitated from 150 μg total protein by incubation at 4°C for 2 hr on a roller mixer with 9 μl of EZview Red anti-FLAG M2 affinity gel. After extensive washing, the immunoprecipitates were assayed for AMPK activity (50 μg per assay in a total volume of 50 μl) using the AMARA peptide (200 μM) as substrate in the presence of 200 μM AMP, 5 mM MgCl2 and 200 μM γ-^32P-ATP as described previously ([Fyffe et al., 2018]).
# AMPK [4] = system: AMPK; design: method as in Guo et al., 2010; settings: HepG2 cells, medium without serum but with 0.02% (w/v) BSA; ref Guo et al., 2010; cited from earlier work
# AMPK [5] = experiment: AMPK activity in anti-AMPK-α immunoprecipitates from HepG2 cells treated with cordycepin; type: cell-based, human
# Experimental: as §2, §1
# [6] = target: T2, AMPK complexes containing the R531G mutant (Homo sapiens, UniProt Q9UGJ0, R531G); experiment: AMPK activity in anti-FLAG immunoprecipitates, HepG2 cells with FLAG-tagged AMPK-γ2 R531G mutant; type: cell-based; settings: 1 h, 300 μM cordycepin, 10 mM phenformin or 300 μM A-769662
# T2 construct: expressed in transfected cells; host or cells: HepG2 (transient, Fugene 6)
# T2 sequence (Q9UGJ0 whole entry R531G, one chain of several): as the sequence (Q9UGJ0 whole entry, one chain of several) above, with R531G counted along it
# Experimental: as §2, §3
# AMPK [7] = experiment: Phosphorylation of AMPK, ACC and Raptor in HepG2 cells (western blotting); type: cell-based, human; settings: cordycepin at 100 μM and above, 1 h
# Experimental: SDS-PAGE for AMPK and Raptor was performed using precast Bis-Tris 4–12% gradient polyacrylamide gels in the MOPS buffer system (Invitrogen). SDS-PAGE for ACC was performed using precast Tris-Acetate 3–8% gradient polyacrylamide gels in the Tris-Acetate buffer system (Invitrogen). Proteins were transferred to nitrocellulose membranes using the iBlot2 system (Invitrogen). Membranes were blocked for 1 hr in Li-Cor Odyssey blocking buffer. The membranes were probed with appropriate antibody (0.1–1 μg/ml) in Li-Cor Odyssey blocking buffer, except where the blotting enhancement system was used (Thermo Scientific; as per manufacturers’ instructions). Detection was performed using secondary antibody (1 μg/ml) coupled to IR 680 or IR 800 dye, or IR-streptavidin 800 dye, and the membranes were scanned using the Li-Cor Odyssey IR imager. Protein concentrations were determined by Coomassie Blue binding with bovine serum albumin as standard ([Bradford, 1976]).
# HepG2 cells = experiment: Cellular oxygen consumption (Seahorse XF24); type: cell-based, human
# Experimental: Cellular oxygen consumption rate (OCR) was measured using a Seahorse XF24 Extracellular Flux Analyser with 50,000 cells per well, as described previously ([Hawley et al., 2010]). HepG2 cells were cultured overnight in 24 well plates (50,000 cells/well) in standard medium as above. One hour before the experiment, the medium was replaced with 675 μl of unbuffered medium, pH 7.4: 8.3 g/L DMEM base (Sigma), 2 mM GlutaMax-1, 5 mM glucose, 32 mM NaCl, and 40 μM Phenol Red. Compounds (75 μl) were injected into wells as specified, and OCR continuously measured as described by the manufacturers of the Analyser ([Wu et al., 2007]).
smiles,measurement,setting,value
"Nc1ncnc2c1ncn2[C@@H]1O[C@H](CO)C[C@H]1O [cordycepin, 3′-deoxyadenosine]",potency of AMPK activation compared with medium containing serum,AMPK [1],much more potent
same,peak plasma concentration,[2],10 µM
same,plasma half-life,[2],2.1 h
same,time to peak plasma concentration,[2],1.5 h
same,activation of AMPK complexes containing WT γ2,[3],activated
same,concentration at which AMPK was activated,AMPK [4],≥ 1 µM
same,AMPK activation,"AMPK [5]; 30 μM cordycepin, 1 h, medium with serum",No activation was evident
same,time of return of AMPK phosphorylation and activation to baseline,"AMPK [5]; 100 μM cordycepin, time course",≤ 4 h
same,peak increase in phosphorylation and activation of AMPK,"AMPK [5]; 100 μM cordycepin, time course, at 1 h",≈ 2 fold
same,EC50,"AMPK [5]; cordycepin 1 h, medium with serum, read-out: half-maximal effect (EC50) on AMPK kinase activity",310 ± 60 µM
same,"kinase activity of AMPK, maximum increase","AMPK [5]; cordycepin 1 h, medium with serum, ±SEM",7 ± 1 fold
same,activation of AMPK complexes containing the R531G mutant,[6],not activated
same,"phosphorylation of Thr172 on AMPK, ACC1 Ser80 and Raptor Ser792",AMPK [7],increased
same,effect on basal oxygen uptake,HepG2 cells; 30 μM to 1 mM,only minor effects
same,inhibition of basal oxygen uptake,HepG2 cells; 300 μM after 45 min and 1 mM after 30 and 45 min,modest inhibition
same,effect on maximal oxygen uptake,"HepG2 cells; after addition of the uncoupler 2,4-dinitrophenol",no significant effects
same,effect on residual oxygen uptake,HepG2 cells; after subsequent addition of rotenone and antimycin A,no significant effects
